These are literature values, as cited in patent US20190259474A1, “GAN-CNN FOR MHC PEPTIDE BINDING PREDICTION” (REGENERON PHARMACEUTICALS, INC., priority 2018, published 2019).

For series [1], the system named is MHC-I protein complex encoded by HLA allele A829:02. The note with it: HLA A829:02; category transformed from IC50. Further: key: binding (1); not binding (−1).
Series [2] deals with MHC-I protein complex encoded by HLA allele A*03:01 (Homo sapiens, UniProt P04439). The settings on record: HLA A*03:01; category transformed from IC50.
The subject of series [3] is MHC-I protein complex encoded by HLA allele C*16:01. The settings on record: HLA C*16:01; category transformed from IC50.
For series [4], the system named is MHC-I protein complex encoded by HLA allele B*14:02. The note with it: HLA B*14:02; category transformed from IC50. Further: key: binding (1); not binding (−1).
For series [5], the target named is MHC-I protein complex encoded by HLA allele A*02:01 (Homo sapiens, UniProt P04439, D140Y/D185E/D98H/E176V/E277Q/G131W/G231S/I119V/I121R/I166T/I218V/L300P/L318F/N151K/N90K/P208A/P217A/Q86G/Q94H/R138H/R169H/T345S). The note with it: HLA A*02:01; category transformed from IC50. Further: key: binding (1); not binding (−1).
Series [6] concerns MHC-I protein complex encoded by HLA allele B*48:01. The settings on record: HLA B*48:01; category transformed from IC50. Further: key: binding (1); not binding (−1).
The subject of series [7] is MHC-I protein complex encoded by HLA allele B*58:01. The settings on record: HLA B*58:01; category transformed from IC50.
For series [8], the system named is MHC-I protein complex encoded by HLA allele A*68:02. The settings on record: HLA A*68:02; category transformed from IC50.
Series [9] deals with MHC-I protein complex encoded by HLA allele A*02:03 (Homo sapiens, UniProt P04439, A173T/D140Y/D185E/D98H/E277Q/G131W/G231S/I119V/I121R/I166T/I218V/L180W/L300P/L318F/N151K/N90K/P208A/P217A/Q86G/Q94H/R138H/R169H/T345S). The note with it: HLA A*02:03; category transformed from IC50.
The target of series [10] is MHC-I protein complex encoded by HLA allele A*02:06 (Homo sapiens, UniProt P04439, D140Y/D185E/D98H/E176V/E277Q/F33Y/G131W/G231S/I119V/I121R/I166T/I218V/L300P/L318F/N151K/N90K/P208A/P217A/Q86G/Q94H/R138H/R169H/T345S). The note with it: HLA A*02:06; category transformed from IC50.
The subject of series [11] is MHC-I protein complex encoded by HLA allele A*02:02. The settings on record: HLA A*02:02; category transformed from IC50.
In series [12] the test system is MHC-I protein complex encoded by HLA allele C*03:04. The settings on record: HLA C*03:04; category transformed from IC50. Further: key: binding (1); not binding (−1).
Series [13] relates to MHC-I protein complex encoded by HLA allele B*44:03. The note with it: HLA B*44:03; category transformed from IC50.

As for AAAAAAAALY (MHC-I binding peptide), in [1], the “Binding Category” value was 1. As to AAAAALQAK (MHC-I binding peptide), in series [2], the “Binding Category” value is 1.

As to AAAAALWL (MHC-I binding peptide), the “Binding Category” value in series [3] is given as 1.

Consider AAAAARAAL (MHC-I binding peptide), for which the “Binding Category” value in series [4] is −1.

Consider AAAAEEEEE (MHC-I binding peptide), for which the “Binding Category” value in series [5] was −1.

On to AAAAFEAAL, for which the “Binding Category” value in series [6] was 1. On to AAAAPYAGW (MHC-I binding peptide), for which the “Binding Category” value in [7] is reported as 1. Consider AAAARAAAL (MHC-I binding peptide), for which the “Binding Category” value in [4] is recorded as 1. For AAAATCALV (MHC-I binding peptide), the “Binding Category” value in series [8], in series [5], in series [9], in series [10] and in [11] was 1 in each case. In the case of AAADAAAAL (MHC-I binding peptide), the “Binding Category” value in [12] is given as 1. In the case of AAADFAHAE (MHC-I binding peptide), the “Binding Category” value in [13] is −1. As to AAADPKVAF (MHC-I binding peptide), in series [3], the “Binding Category” value is given as 1.
